Data on 26 molecules can be found in patent publication US6498159B1, “Phthalazine derivatives and remedies for erectile dysfunction” (Eisai Co., Ltd., priority 1998, dated 2002).

pIC50: −log10 of the molar value. Where a name gives a salt, the structure may show the parent alone.

The assay deals with PDE5 (Sus scrofa, UniProt A0A287B475). Put plainly: Inhibitory action on the enzyme cGMP-PDE obtained from porcine platelets. The class given is biochemical. As to conditions: 1 μM cGMP substrate, 1 mM EGTA, read-out: PDE 5 IC50. How it is done: 1) Inhibitory Action on the Enzyme cGMP-PDE Obtained from Porcine Platelets
The inhibitory activity of a test compound on the enzyme cGMP-PDE prepared from porcine platelets was determined by adding a solution of the test compound dissolved in DMSO to a reaction solution, where 1 μM cGMP was used as the substrate in the presence of 1 mM EGTA in accordance with a method of Tompson et al. The final concentration of DMSO in the reaction solution was 1% or less. Preparation of cGMP-PDE was conducted as follows. Porcine platelets were added to buffer A (20 mM Tris/HCl, 2 mM magnesium acetate, 10 mM 2-mercaptoethanol, 0.1 mM EGTA; pH 7.4), and then sonicated. The resulting suspension was centrifuged at 100,000×g for 60 min, and the resulting supernatant was subjected to a column (DEAE-Toyopearl 650S produced by Tosoh, Tokyo, Japan). After the column was washed with buffer A, the enzyme was eluted with a gradient of from 0.075 to 0.25 M NaCl in buffer A to give a CGMP-PDE fraction. The resulting fraction was dialyzed, concentrated and stored.
A word on the pIC50: it is −log10 of the IC50, conventionally taken in molar units. Take `COc1ccc(CNc2nnc(N3[C@@H]4CC[C@H]3C[C@@H](O)C4)c3ccc(C#N)cc23)cc1Cl` [Example 52, (endo)-4-[(3-Chloro-4-methoxybenzyl)amino]-1-(3-hydroxy-8-azabicyclo[3.2.1]oct-8-yl)-6-phthalazinecarbonitrile Hydrochloride]: the negative logarithm of the IC50 (pIC50) was 9.70.
Turning to `COc1ccc(CNc2nnc(N3CCC(CO)CC3)c3ccc(C#N)cc23)cc1Br` [Example 84, 4-[(3-Bromo-4-methoxybenzyl)amino]-1-[4-(hydroxymethyl)piperidino]-6-phthalazinecarbonitrile Hydrochloride], the pIC50 was 9.03.
The figure for `COc1ccc(CNc2nnc(N3CCC(C#N)CC3)c3ccc(C#N)cc23)cc1Cl` [Example 3, 4-(3-Chloro-4-methoxybenzyl)amino-6-cyano-1-(4-cyanopiperidino)phthalazine Hydrochloride] is 8.96; for `COc1ccc(CNc2nnc(N3CCC(O)CC3)c3ccc(C#N)cc23)cc1I` [Example 76, 1-(4-Hydroxypiperidino)-4-[(3-iodo-4-methoxybenzyl)amino]-6-phthalazinecarbonitrile Hydrochloride] it is 9.89.
`COc1ccc(CNc2nnc(N3CCC4(CC3)CC(=O)C4)c3ccc(C#N)cc23)cc1Cl` [Example 12, 4-[(3-Chloro-4-methoxybenzyl)amino]-1-(2-oxo-7-azaspiro[3.5]non-7-yl)-6-phthalazine Carbonitrile]: the negative-log IC50 (pIC50) was 9.27.
Regarding `COc1ccc(CNc2nnc(N3CCC(O)CC3)c3ccc(-n4cccn4)cc23)cc1Cl` [Example 105, 1-[4-[(3-Chloro-4-methoxybenzyl)amino]-6-(1H-1-pyrazolyl)-1-phthalazinyl]-4-piperidinol Hydrochloride], the pIC50 was 10.00.
The result for `COc1ccc(CNc2nnc(N3CCCC(CO)C3)c3ccc(C#N)cc23)cc1Cl` (centres unmarked) [Production Example 4, 4-(3-Chloro-4-methoxybenzyl)amino-6-cyano-1-(3-hydroxymethylpiperidino)phthalazine Hydrochloride] reads 9.72; that for `COc1ccc(CNc2nnc(N3[C@@H]4CC[C@H]3C[C@@H](O)C4)c3ccc(C#N)cc23)cc1Br` [Example 85, (endo)-4-[(3-Bromo-4-methoxybenzyl)amino]-1-(3-hydroxy-8-azabicyclo[3.2.1]octo-8-yl)-6-phthalazine Carbonitrile], 9.92.
On to `COc1ccc(CNc2nnc(N3CCC4(CC3)COC(=O)C4)c3ccc(C#N)cc23)cc1Cl` [Example 11, 4-[(3-Chloro-4-methoxybenzyl)amino]-1-(3-oxo-2-oxa-8-azaspiro[4.5]dece-8-yl)-6-phthalazine Carbonitrile], for which the pIC50 was 9.17.
Consider `COc1ccc(CNc2nnc(N3CCC(O)C(C)C3)c3ccc(C#N)cc23)cc1Cl` (centres unmarked) [Production Example 11, 4-[(3-Chloro-4-methoxybenzyl)amino]-1-(4-hydroxy-3-methylpiperidino)-6-phthalazinecarbonitrile Hydrochloride], for which the negative-log IC50 (pIC50) is 9.62.
On to `COc1ccc(CNc2nnc(N3CCC(F)(CO)CC3)c3ccc(C#N)cc23)cc1Cl` [Example 43, 4-[(3-Chloro-4-methoxybenzyl)amino]-1-[4-fluoro-4-(hydroxymethyl)piperidino]-6-phthalazinecarbonitrile Hydrochloride], for which the pIC50 was 9.64.
Regarding `COc1ccc(CNc2nnc(N3CCC[C@@H](O)C3)c3ccc(C#N)cc23)cc1Cl` [Production Example 1, 4-(3-Chloro-4-methoxybenzyl)amino-6-cyano-1-[(3R)-3-hydroxypiperidino]phthalazine Hydrochloride], the negative-log IC50 (pIC50) was 10.05.
As for `COc1ccc(CNc2nnc(N3CCC[C@H]3CO)c3ccc(C#N)cc23)cc1Cl` [Production Example 3, 4-(3-Chloro-4-methoxybenzyl)amino-6-cyano-1-[(2S)-2-hydroxymethylpyrrolidino]phthalazine Hydrochloride], the pIC50 was 9.14.
`COc1ccc(CNc2nnc(C#CC(C)(C)N)c3ccc(C#N)cc23)cc1Cl` [Example 25, 1-(3-Amino-3-methyl-1-butynyl)-4-[(3-chloro-4-methoxybenzyl)amino]-6-phthalazinecarbonitrile Hydrochloride]: the pIC50 is 9.80.
For `COc1ccc(CNc2nnc(N3CCC(=NO)CC3)c3ccc(C#N)cc23)cc1Cl` [Example 50, 4-[(3-Chloro-4-methoxybenzyl)amino]-1-(4-hydroxyiminopiperidino)-6-phthalazinecarbonitrile Hydrochloride], the pIC50 is 9.62.
The result for `COc1ccc(CNc2nnc(N3CCC(N)CC3)c3ccc(C#N)cc23)cc1Cl` [Example 5, 1-(4-Aminopiperidino)-4-(3-chloro-4-methoxybenzyl)amino-6-cyanophthalazine Dihydrochloride] reads 10.29; that for `COc1ccc(CNc2nnc(N3CCC(O)(CO)CC3)c3ccc(C#N)cc23)cc1Cl` [Example 6, 4-(3-Chloro-4-methoxybenzyl)amino-6-cyano-1-[4-hydroxy-4-(hydroxymethyl)piperidino]phthalazine Hydrochloride], 9.01.
In the case of `CO/N=C/c1ccc2c(N3CCC(O)CC3)nnc(NCc3ccc(OC)c(Cl)c3)c2c1` [Example 110, 4-[(3-Chloro-4-methoxybenzyl)amino]-1-(4-hydroxypiperidino)-6-phthalazinecarbaldehyde O6-Methyloxime Hydrochloride], the pIC50 is 9.18.
Regarding `COc1ccc(CNc2nnc(N3CC[C@H](CO)C3)c3ccc(C#N)cc23)cc1Br` [Example 79, 4-[(3-Bromo-4-methoxybenzyl)amino]-1-[(3S)-3-(hydroxymethyl)tetrahydro-1H-1-pyrrolyl]-6-phthalazinecarbonitrile Hydrochloride], the pIC50 is 9.57.
For the molecule `COc1ccc(CNc2nnc(N(C)Cc3ccccn3)c3ccc(C#N)cc23)cc1Cl` [Production Example 7, 4-(3-Chloro-4-methoxybenzyl)amino-6-cyano-1-[methyl(2-pyridylmethyl)amino]phthalazine Dihydrochloride], the pIC50 is 10.52.
The figure for `COc1ccc(CCNc2nnc(N3CCC(C#N)CC3)c3ccc(C#N)cc23)cc1Cl` [Example 4, 4-(3-Chloro-4-methoxyphenethyl)amino-6-cyano-1-(4-cyanopiperidino)phthalazine Hydrochloride] is 9.29.
As to `COc1ccc(CNc2nnc(N(C)CCc3ccccn3)c3ccc(C#N)cc23)cc1Cl` [Production Example 8, 4-(3-Chloro-4-methoxybenzyl)amino-6-cyano-1-{N-methyl-[2-(2-pyridyl)ethyl]amino}phthalazine Dihydrochloride], the pIC50 was 9.33.
Regarding `COc1ccc(CNc2nnc(-c3ccccn3)c3ccc(C#N)cc23)cc1Cl` [Example 2, 4-(3-Chloro-4-methoxybenzyl)amino-6-cyano-1-(2-pyridyl)phthalazine Dihydrochloride], the pIC50 is 9.52.
With `COc1ccc(CCNc2nnc(N3CCC(CO)CC3)c3ccc(C#N)cc23)cc1Cl` [Production Example 6, 4-(3-Chloro-4-methoxyphenethyl)amino-6-cyano-1-(4-hydroxymethylpiperidino)phthalazine], the pIC50 is 9.30.
As to `COc1ccc(CNc2nnc(-c3cccnc3)c3ccc(C#N)cc23)cc1Cl` [Example 1, 4-(3-Chloro-4-methoxybenzyl)amino-6-cyano-1-(3-pyridyl)phthalazine Dihydrochloride], the pIC50 was 9.11.
Regarding `COc1ccc(CCNc2nnc(N3CCCC(CO)C3)c3ccc(C#N)cc23)cc1Cl` (centres unmarked) [Production Example 5, 4-(3-Chloro-4-methoxyphenethyl)amino-6-cyano-1-(3-hydroxymethylpiperidino)phthalazine Hydrochloride], the pIC50 is 9.64.
